# Results published in US20260284016A1, “COMBINATIONS AND METHODS FOR ENHANCING CHECKPOINT INHIBITOR THERAPIES IN CANCER TREATMENT” (PURDUE RESEARCH FOUNDATION, priority 2004, published 2026).
# What was measured:
# [1] = test system: BM-induced mice
# Method: Studies were also performed to determine if macrophages in pulmonary fibrotic lungs might be specifically targeted with folate-linked drugs in vivo. […] (The BM model is widely regarded to be helpful in terms of enabling mechanistic investigations relevant to fibrogenesis in an in vivo context.)
# More specifically, eight-week-old C57BL6 male mice from Charles River (average weight 22 g to 25 g) were housed under pathogen-free conditions at room temperature (22° C.) under a 12 hours light-dark cycle. Mice were placed on a folate deficient chow (Envigo Teklad Global Rat Food Pellets) for 1 week prior to the BM or PBS instillation. Fresh water and folate-deficient diet were freely available. All animal procedures were approved by the Purdue Animal Care and Use Committee in accordance with National Institute of Health guidelines.
# Thereafter, the mice were anesthetized with ketamine/xylazine and the necks of the mice were shaved using hair remover lotion and then sterilized with 70% alcohol. A small incision was made on the neck to visualize the trachea. Mice were positioned at a 75-degree angle and injected intratracheally with 100 μL sterile PBS or BM (Cayman Chemicals, Ann Arbor, MI; #13877) dissolved in PBS (0.75 mg/kg) using a 1 cc syringe with 26 G needle. Body weights were monitored every other day throughout the experiment.
# Lobes of the right lung collected above were weighed, placed in a pressure-tight vial (Supelco Inc., Bellefonte, PA; #27003), and hydrolyzed with 6N HCl (10 ml/g, v/w) in a sand bath at 120° C., for 3.5 hours. The hydrolyzed solution was cooled at 4° C., for 15 min and transferred to a 1.5 ml Eppendorf tube prior to centrifugation at 12,000 rcf for 15 min at 4° C. Supernatant was carefully collected, aliquoted and used for hydroxyproline (HYP) analysis.
# For the subsequent HYP analysis, 10 μl of sample was transferred into a 96-well plate and neutralized with 10 μl of 5.3 M sodium hydroxide solution. Isopropanol ([…]) was then added to each well followed by 20 μl of oxidation buffer and the mixture was incubated on a shaker at room temperature for 5 min. Analytical reagent (260 μl) was added, and the plate was incubated on a shaker at room temperature for 30 seconds and incubated immediately at 60° C., for 25 min. The absorbance was measured at 560 nm (A560) within 15 min. All reagents were prepared according to a previously reported protocol.
# For histological analysis of the lung sections, fixed lungs (see above) were embedded in paraffin, sectioned and stained with hematoxylin-eosin (H&E), Masson's trichrome or F3 (anti-mouse FRβ antibody). Tissue sections were examined in a blinded manner by a licensed pathologist. More than 90×10^6 cells were quantified per section using Aperio-Image Scope (Leica Biosystems, Wetzlar, DE).
# For this, BM-treated mice were intravenously injected every other day beginning on day 10 with either vehicle (3% DMSO in PBS) or Compound 1B (see FIG. 8A). […] In BM-induced experimental pulmonary fibrosis in mice, inflammation is known to persist for about 9-10 days after BM installation. Because, inflammation to fibrosis switch happens in this model approximately day 9 to day 14, and anti-inflammatory markers start appearing at about day 10, dosing began on day 10 (FIG. 8A).
# Two doses were given every other day till day 21. The individual doses on a day are separated by 6 hours to prevent any “tolerance” to TLR agonists. Mice were then sacrificed on day 21 and subjected immediately to bronchoalveolar lavage followed by resection of the lungs for immunohistochemistry and quantitation of collagen and hydroxyproline.
# [2] = test system: M2-induced THP-1 macrophages; test: Reprogramming of M2-polarized THP-1 macrophages, marker mRNA by qPCR; assay type: cell-based, human
# Method: THP-1 cells were seeded into 96-well plates at a density of 60,000 cells/well. Cells were differentiated into unpolarized macrophages by 48 hours incubation with 200 nM PMA followed by 24 hours incubation in fresh RPMI medium. […] Cultures were maintained at 37° C., in a humidified 5% CO2 incubator.
# Total RNA was isolated from 1×10^5-2×10^5 macrophages using a Quick-RNA™ MicroPrep kit (Zymo Research, Irvine, CA) according to the manufacturer-recommended protocol. The RNA samples were then reverse-transcribed into cDNA using high-capacity cDNA reverse transcription kits (Applied Biosystems, Foster City, CA; #4368814), qPCR analyses were performed using the iTaq™ Universal SYBR Green SuperMix (Bio-Rad Laboratories GmbH, Hercules, CA; #1725121), iCycler thermocycler, and iCycler iQ 3.0 software (Bio-Rad Laboratories GmbH, Hercules, CA) to track the expression of markers characteristic of macrophage polarization states, IL-6, CXCL10, IFNα, IFN-γ and CD86 were used as markers for an M1 phenotype, while CCL18. CD206, CD163 and Arg1 were employed as markers for the M2 phenotype, IL-1β, PDGFβ, MMP9 and TIMP 3 were measured as indicators of an anti-inflammatory phenotype. IRAK-4 was used as an indicator of TLR7 stimulation. To control for specificity of the amplification products, a melting curve analysis was performed. […] Each sample was analyzed independently in triplicate for each marker.
# In both data sets, the cells were harvested for gene analysis by qPCR.
# Primarily, human monocytic (THP-1) cells were induced to the M2-like phenotype using the methods and materials previously described. In particular, THP-1 cells were seeded into 96-well plates at a density of 60,000 cells/well. Cells were differentiated into unpolarized macrophages by 48 h incubation with 200 nM PMA followed by 24 hours incubation in fresh RPMI medium. The resulting macrophages were polarized to an M2-like phenotype by incubation with […] IL-4, 20 ng/ml […], and 5 ng/mL IL-6 for 48h. Cultures were maintained at 37° C. in a humidified 5% CO2 incubator.
# In addition to the nonconjugated TLR7 agonist, conjugated compounds of the present disclosure were likewise evaluated. Human THP-1 cells were induced to macrophages having the M2-like phenotype per the methods set forth herein (e.g., using 20 ng/mL IL-4, 20 ng/mL IL-13, 5 ng/mL IL-6), then reprogrammed with different nM concentrations of various compounds of the present disclosure for 2 hours; namely, a nonconjugated (free drug) TLR7 agonist compound having formula I and/or II (data shown collectively as Compound 3A), a folate-conjugated TLR7 agonist compound having formula XV (having a releasable linker) (e.g., Compound 3B), a folate-conjugated TLR7 agonist compound having formula XVII (having a non-releasable linker) (e.g., Compound 3C), and a folate-conjugated TLR7 agonist compound having formula XVI (having a non-releasable linker) (e.g., Compound 3D). The cells were subsequently harvested for gene analysis by qPCR and the relative expression of CCL18 (FIG. 14A), CD206 (FIG. 14B), and IL-1β (FIG. 14C) analyzed.
# [3] = 2 hours with drug, then drug-free medium
smiles,measurement,setting,value
CCCCc1nc2c(N)nc3ccccc3c2n1CC(C)(C)OC(=O)OCCSSCC(NC(=O)CCC(NC(=O)c1ccc(NCc2cnc3nc(N)[nH]c(=O)c3n2)cc1)C(=O)O)C(=O)O (stereo not drawn) [Compound 1B],order of efficacy on lung hydroxyproline content,"[1]; 0, 1, 3, or 10 nmol/mouse, day 21",10 nmol/mouse>3 nmol/mouse>1 nmol/mouse>0 nmol/mouse
same,lung histology with rising dose,"[1]; 0, 1, 3, or 10 nmoles",lung histology improved
same,weight loss across doses,"[1]; 0, 1, 3, or 10 nmoles every other day from day 10",no difference in weight loss
same,"response in lung sections (DAPI, anti-F4/80, anti-CD206 staining)",[1]; healthy and fibrotic lungs,robust anti-fibrotic and proinflammatory response
same,"collagen stain, Masson's trichrome","[1]; tail vein injection, treatment from day 10",strongly suppressed
same,"lung architecture, H&E staining",[1]; treatment from day 10,resembles that of healthy mice
same,"anti-inflammatory/M2-type markers (CCL18, CD206, IL-1β, PDGFβ mRNA)","[2]; 2 hours incubation, harvested at once or after further 46 hours",downregulated anti-inflammatory/M2-type markers of macrophages more than Compound 1A
same,TNFα induction,[2]; [3],dramatically improved
same,potency in reprogramming,[2]; [3],superior potency relative to Compound 1A
